Test results from patent US9718819B2 (Merck Sharp & Dohme Corp., priority 2012, dated 2017).

biological target: HIV-1 RT wild-type enzyme (Human immunodeficiency virus type 1 group M subtype B (isolate HXB2) (HIV-1), UniProt P04585); test: HIV-1 reverse transcriptase inhibitory activity (RT polymerase assay); type: biochemical; conditions: HIV-1 RT wild-type enzyme 83 pM; RNA-dependent DNA polymerase activity; read-out: IC50
Experimental: Determination of HIV-1 Reverse Transcriptase Inhibitory Activity
The heterodimeric nucleic acid substrate used in the HIV-1 RT polymerase reactions was generated by annealing the DNA primer, biotinylated pD500 (Sigma Aldrich, USA, 5′-biotin-ttg aaa tga ctg cgg tac ggc-3′), SEQ ID NO. 1 to the nucleotide RNA template t500 (derived from hepatitis C virus [HCV] sequence, IBA, Germany, 5′-[…]-3′), SEQ ID NO 2). […] The mixture was then preincubated on an orbital shaker for 30 min at room temperature in microtiter plates (Costar 3365, Corning, USA). A polymerization reaction was initiated by the addition of RNA template/pD500 DNA primer hybrid (16.6 nM final of RNA/DNA hybrid) and dNTPs (2 μM dATP, dGTP, dCTP and 66.6 nM Ru-dUTP (Meso Scale Discovery, USA)). Plate was sealed and incubated for 5-10 min at room temperature on an orbital shaker. Plate was then incubated for 90 min at 37° C. and reactions quenched with 60 μl quenching buffer (50 mM EDTA, 0.7% BSA, 0.7% Tween-20, 0.017% sodium azide in PBS). The resulting solution was incubated at room temperature for an additional 5 min and then 50 μL was transferred to pre-blocked Avidin plates (L15AA, Meso Scale Discovery). Each well of Avidin plate was blocked for 1 h at room temperature with 100 μL 5% BSA in PBS. Blocking solution was removed by tapping vigorously on filter paper to remove all excess liquid. Reaction on pre-blocked avidin plate proceeded for 60 min at room temperature and then contents removed by tapping vigorously on filter paper to remove all excess liquid. After washing plate 3 times with 150 μL 1×PBS and blotting dry between cycles, 150 μL 1× Read Buffer T (4× Read Buffer T, Meso Scale Discovery) was added and incubated for 5 min at room temperature before counting on a Sector Imager […] (Meso Scale Discovery). Titration curves and IC50 values were calculated using a four parameter logisitc fit according to standard procedures. Briefly, % Inhibition=100×((sample raw value)−(mean value of the low control or 0% inhibition))/((mean value of wells representing 100% inhbition)−(mean value of 0% inhbition)). In this assay, low control wells contain DMSO (0% inhbition) and 100% inhibition wells contain 1 μM efavirenz.

Compound	IC50
N#Cc1cc(Cl)cc(Oc2c(C(F)(F)F)ncn(Cc3cc(-c4ccc(F)c(F)c4)c(=O)[nH]n3)c2=O)c1 [Example 29, 3-chloro-5-((1-((5-(3,4-difluorophenyl)-6-oxo-1,6-dihydropyridazin-3-yl)methyl)-6-oxo-4-(trifluoromethyl)-1,6-dihydropyrimidin-5-yl)oxy)benzonitrile]	3 nM
N#Cc1cc(Cl)cc(Oc2c(C(F)(F)F)ncn(Cc3cc(-c4ccc(OC(F)F)cc4)c(=O)[nH]n3)c2=O)c1 [Example 30, 3-chloro-5-((1-((5-(4-(difluoromethoxy)phenyl)-6-oxo-1,6-dihydropyridazin-3-yl)methyl)-6-oxo-4-(trifluoromethyl)-1,6-dihydropyrimidin-5-yl)oxy)benzonitrile]	4 nM
Cc1ccc(-c2cc(Cn3cnc(C(F)(F)F)c(Oc4cc(Cl)cc(C#N)c4)c3=O)n[nH]c2=O)cc1 [Example 31, 3-chloro-5-((6-oxo-1-((6-oxo-5-(p-tolyl)-1,6-dihydropyridazin-3-yl)methyl)-4-(trifluoromethyl)-1,6-dihydropyrimidin-5-yl)oxy)benzonitrile]	5 nM
CC(C)Oc1ccc(-c2cc(Cn3cnc(C(F)(F)F)c(Oc4cc(Cl)cc(C#N)c4)c3=O)n[nH]c2=O)cc1F [Example 32, 3-chloro-5-((1-((5-(3-fluoro-4-isopropoxyphenyl)-6-oxo-1,6-dihydropyridazin-3-yl)methyl)-6-oxo-4-(trifluoromethyl)-1,6-dihydropyrimidin-5-yl)oxy)benzonitrile]	13 nM
N#Cc1cc(Cl)cc(Oc2c(C(F)(F)F)ncn(Cc3cc(-c4cc(F)cc(F)c4)c(=O)[nH]n3)c2=O)c1 [Example 33, 3-chloro-5-((1-((5-(3,5-difluorophenyl)-6-oxo-1,6-dihydropyridazin-3-yl)methyl)-6-oxo-4-(trifluoromethyl)-1,6-dihydropyrimidin-5-yl)oxy)benzonitrile]	7 nM
N#Cc1cc(Cl)cc(Oc2c(C(F)(F)F)ncn(Cc3cc(-c4ccc(F)c(Cl)c4)c(=O)[nH]n3)c2=O)c1 [Example 34, 3-chloro-5-((1-((5-(3-chloro-4-fluorophenyl)-6-oxo-1,6-dihydropyridazin-3-yl)methyl)-6-oxo-4-(trifluoromethyl)-1,6-dihydropyrimidin-5-yl)oxy)benzonitrile]	7 nM
N#Cc1cc(Cl)cc(Oc2c(C(F)(F)F)ncn(Cc3cc(-c4ccc(F)cc4F)c(=O)[nH]n3)c2=O)c1 [Example 35, 3-chloro-5-((1-((5-(2,4-difluorophenyl)-6-oxo-1,6-dihydropyridazin-3-yl)methyl)-6-oxo-4-(trifluoromethyl)-1,6-dihydropyrimidin-5-yl)oxy)benzonitrile]	8 nM
N#Cc1cc(Cl)cc(Oc2c(C(F)(F)F)ncn(Cc3cc(-c4cccc(Cl)c4)c(=O)[nH]n3)c2=O)c1 [Example 36, 3-chloro-5-((1-((5-(3-chlorophenyl)-6-oxo-1,6-dihydropyridazin-3-yl)methyl)-6-oxo-4-(trifluoromethyl)-1,6-dihydropyrimidin-5-yl)oxy)benzonitrile]	4 nM
Cc1cc(-c2cc(Cn3cnc(C(F)(F)F)c(Oc4cc(Cl)cc(C#N)c4)c3=O)n[nH]c2=O)ccc1F [Example 37, 3-chloro-5-((1-((5-(4-fluoro-3-methylphenyl)-6-oxo-1,6-dihydropyridazin-3-yl)methyl)-6-oxo-4-(trifluoromethyl)-1,6-dihydropyrimidin-5-yl)oxy)benzonitrile]	5 nM
Cc1cccc(-c2cc(Cn3cnc(C(F)(F)F)c(Oc4cc(Cl)cc(C#N)c4)c3=O)n[nH]c2=O)c1F [Example 38, 3-chloro-5-((1-((5-(2-fluoro-3-methylphenyl)-6-oxo-1,6-dihydropyridazin-3-yl)methyl)-6-oxo-4-(trifluoromethyl)-1,6-dihydropyrimidin-5-yl)oxy)benzonitrile]	110 nM
Cc1ccc(F)c(-c2cc(Cn3cnc(C(F)(F)F)c(Oc4cc(Cl)cc(C#N)c4)c3=O)n[nH]c2=O)c1 [Example 39, 3-chloro-5-((1-((5-(2-fluoro-5-methylphenyl)-6-oxo-1,6-dihydropyridazin-3-yl)methyl)-6-oxo-4-(trifluoromethyl)-1,6-dihydropyrimidin-5-yl)oxy)benzonitrile]	10 nM
N#Cc1cc(Cl)cc(Oc2c(C(F)(F)F)ncn(Cc3cc(-c4ccc(F)cc4Cl)c(=O)[nH]n3)c2=O)c1 [Example 40, 3-chloro-5-((1-((5-(2-chloro-4-fluorophenyl)-6-oxo-1,6-dihydropyridazin-3-yl)methyl)-6-oxo-4-(trifluoromethyl)-1,6-dihydropyrimidin-5-yl)oxy)benzonitrile]	70 nM
N#Cc1cc(Cl)cc(Oc2c(C(F)(F)F)ncn(Cc3cc(-c4cccc(F)c4Cl)c(=O)[nH]n3)c2=O)c1 [Example 41, 3-chloro-5-((1-((5-(2-chloro-3-fluorophenyl)-6-oxo-1,6-dihydropyridazin-3-yl)methyl)-6-oxo-4-(trifluoromethyl)-1,6-dihydropyrimidin-5-yl)oxy)benzonitrile]	59 nM
Cc1ccc(-c2cc(Cn3cnc(C(F)(F)F)c(Oc4cc(Cl)cc(C#N)c4)c3=O)n[nH]c2=O)c(F)c1 [Example 42, 3-chloro-5-((1-((5-(2-fluoro-4-methylphenyl)-6-oxo-1,6-dihydropyridazin-3-yl)methyl)-6-oxo-4-(trifluoromethyl)-1,6-dihydropyrimidin-5-yl)oxy)benzonitrile]	7 nM
N#Cc1cc(Cl)cc(Oc2c(C(F)(F)F)ncn(Cc3cc(-c4cccc(Cl)c4F)c(=O)[nH]n3)c2=O)c1 [Example 43, 3-chloro-5-((1-((5-(3-chloro-2-fluorophenyl)-6-oxo-1,6-dihydropyridazin-3-yl)methyl)-6-oxo-4-(trifluoromethyl)-1,6-dihydropyrimidin-5-yl)oxy)benzonitrile]	9 nM
COc1cccc(-c2cc(Cn3cnc(C(F)(F)F)c(Oc4cc(Cl)cc(C#N)c4)c3=O)n[nH]c2=O)c1F [Example 44, 3-chloro-5-((1-((5-(2-fluoro-3-methoxyphenyl)-6-oxo-1,6-dihydropyridazin-3-yl)methyl)-6-oxo-4-(trifluoromethyl)-1,6-dihydropyrimidin-5-yl)oxy)benzonitrile]	4 nM
COc1ccc(-c2cc(Cn3cnc(C(F)(F)F)c(Oc4cc(Cl)cc(C#N)c4)c3=O)n[nH]c2=O)c(F)c1 [Example 45, 3-chloro-5-((1-((5-(2-fluoro-4-methoxyphenyl)-6-oxo-1,6-dihydropyridazin-3-yl)methyl)-6-oxo-4-(trifluoromethyl)-1,6-dihydropyrimidin-5-yl)oxy)benzonitrile]	6 nM
N#Cc1cc(Cl)cc(Oc2c(C(F)(F)F)ncn(Cc3cc(-c4ccc(Cl)c(F)c4)c(=O)[nH]n3)c2=O)c1 [Example 46, 3-chloro-5-((1-((5-(4-chloro-3-fluorophenyl)-6-oxo-1,6-dihydropyridazin-3-yl)methyl)-6-oxo-4-(trifluoromethyl)-1,6-dihydropyrimidin-5-yl)oxy)benzonitrile]	5 nM
N#Cc1cc(Cl)cc(Oc2c(C(F)(F)F)ncn(Cc3cc(-c4cc(Cl)ccc4F)c(=O)[nH]n3)c2=O)c1 [Example 47, 3-chloro-5-((1-((5-(5-chloro-2-fluorophenyl)-6-oxo-1,6-dihydropyridazin-3-yl)methyl)-6-oxo-4-(trifluoromethyl)-1,6-dihydropyrimidin-5-yl)oxy)benzonitrile]	11 nM
N#Cc1cc(Cl)cc(Oc2c(C(F)(F)F)ncn(Cc3cc(-c4cc(F)ccc4F)c(=O)[nH]n3)c2=O)c1 [Example 48, 3-chloro-5-((1-((5-(2,5-difluorophenyl)-6-oxo-1,6-dihydropyridazin-3-yl)methyl)-6-oxo-4-(trifluoromethyl)-1,6-dihydropyrimidin-5-yl)oxy)benzonitrile]	9 nM
Cc1ccc(F)cc1-c1cc(Cn2cnc(C(F)(F)F)c(Oc3cc(Cl)cc(C#N)c3)c2=O)n[nH]c1=O [Example 50]	165 nM
COc1cccc(F)c1-c1cc(Cn2cnc(C(F)(F)F)c(Oc3cc(Cl)cc(C#N)c3)c2=O)n[nH]c1=O [Example 51, 3-chloro-5-((1-((5-(2-fluoro-6-methoxyphenyl)-6-oxo-1,6-dihydropyridazin-3-yl)methyl)-6-oxo-4-(trifluoromethyl)-1,6-dihydropyrimidin-5-yl)oxy)benzonitrile]	358 nM
COc1ccc(-c2cc(Cn3cnc(C(F)(F)F)c(Oc4cc(Cl)cc(C#N)c4)c3=O)n[nH]c2=O)cc1F [Example 52, 3-chloro-5-((1-((5-(3-fluoro-4-methoxyphenyl)-6-oxo-1,6-dihydropyridazin-3-yl)methyl)-6-oxo-4-(trifluoromethyl)-1,6-dihydropyrimidin-5-yl)oxy)benzonitrile]	4 nM
